Measurements reported in US20260152487A1 (Sitryx Therapeutics Limited, priority 2021, published 2026).

Target: T1, recombinant human PKM2 (Homo sapiens, UniProt P14618)
T1 construct: His (N); purchased R&D Systems
Test: Human PKM2 activation assay (Kinase-Glo Plus luminescent detection of generated ATP)
Assay type: biochemical
Conditions: for Emax: percentage activation normalised to DMSO vehicle (LOW) and 5 μM TEPP-46 (HIGH), read-out: hPKM2 Emax; for EC50: recombinant human PKM2 activation, 4-parameter logistic fit, read-out: hPKM2 EC50
Summary of the method: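 Luminescent ATP detection (Kinase-Glo Plus, 15 min, 26 °C) followed a 60 min, 26 °C shaken reaction of compound with […] His-tagged human PKM2, PEP and ADP in imidazole/KCl/MgCl2 buffer with Tween20 and BSA, pH 7.2.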

T1 sequence (P14618 2-531 limits assumed): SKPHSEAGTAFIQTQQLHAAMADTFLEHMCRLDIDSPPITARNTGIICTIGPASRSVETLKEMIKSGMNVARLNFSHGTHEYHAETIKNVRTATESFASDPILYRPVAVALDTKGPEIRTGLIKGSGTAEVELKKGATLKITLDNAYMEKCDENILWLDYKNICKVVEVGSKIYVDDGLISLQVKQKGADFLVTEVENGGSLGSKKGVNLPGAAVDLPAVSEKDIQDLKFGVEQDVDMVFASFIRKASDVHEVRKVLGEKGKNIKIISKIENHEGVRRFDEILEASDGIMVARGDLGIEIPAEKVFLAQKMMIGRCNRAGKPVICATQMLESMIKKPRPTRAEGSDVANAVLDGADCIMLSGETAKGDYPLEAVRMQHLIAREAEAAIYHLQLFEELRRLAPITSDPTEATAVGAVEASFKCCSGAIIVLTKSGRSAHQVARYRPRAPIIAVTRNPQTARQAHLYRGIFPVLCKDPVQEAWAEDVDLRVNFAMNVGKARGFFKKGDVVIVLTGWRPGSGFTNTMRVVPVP

Emax [%] | EC50 [nM] | Compound
91.9 | 394 | O=c1c2ccc(S(=O)(=O)c3cnc4c(c3)OCCO4)cc2cnn1Cc1cc[nH]n1 [Example 234, 2-((1H-pyrazol-3-yl)methyl)-6-((2,3-dihydro-[1,4]dioxino[2,3-b]pyridin-7-yl)sulfonyl)phthalazin-1(2H)-one]
114 | 56.6 | COc1ccc(S(=O)(=O)c2ccc3c(=O)n(Cc4cc[nH]n4)ncc3c2)cn1 [Example 235, 2-((1H-pyrazol-3-yl)methyl)-6-((6-methoxypyridin-3-yl)sulfonyl)phthalazin-1(2H)-one]
80.7 | 582 | O=c1c2ccc(S(=O)(=O)c3ccn(CCO)n3)cc2cnn1Cc1cccnc1O [Example 237, 6-(1-(2-hydroxyethyl)-1H-pyrazol-3-ylsulfonyl)-2-((2-hydroxypyridin-3-yl)methyl)phthalazin-1(2H)-one]
109 | 86 | Cn1ccc(Cn2ncc3c(F)c(S(=O)(=O)c4ccccc4)ccc3c2=O)n1 [Example 243, 5-fluoro-2-((1-methyl-1H-pyrazol-3-yl)methyl)-6-(phenylsulfonyl)phthalazin-1(2H)-one]
96.7 | 261 | O=c1c2cc(NCCO)c(S(=O)(=O)c3ccccc3)cc2cnn1Cc1cccnc1O [Example 246, 7-((2-hydroxyethyl)amino)-2-((2-hydroxypyridin-3-yl)methyl)-6-(phenylsulfonyl)phthalazin-1(2H)-one]
103 | 113 | Cn1ccc(Cn2ncc3cc(S(=O)(=O)c4ccccc4)ncc3c2=O)n1 [Example 248, 3-((1-methyl-1H-pyrazol-3-yl)methyl)-7-(phenylsulfonyl)pyrido[3,4-d]pyridazin-4(3H)-one]
98.1 | 530 | Cn1ccc(Cn2ncc3cc([S+]([O-])c4ccccc4)ncc3c2=O)n1 (stereo not shown) [Example 249, 3-((1-methyl-1H-pyrazol-3-yl)methyl)-7-(phenylsulfinyl)pyrido[3,4-d]pyridazin-4(3H)-one]
107 | 498 | O=c1c2ccc(S(=O)(=O)c3ccncc3)cc2cnn1Cc1cc[nH]n1 [Example 254, 2-((1H-pyrazol-3-yl)methyl)-6-(pyridin-4-ylsulfonyl)phthalazin-1(2H)-one]
99.3 | 161 | COc1ccc(S(=O)(=O)c2ccc3c(=O)n(Cc4cc[nH]n4)ncc3c2)nc1 [Example 257, 2-((1H-pyrazol-3-yl)methyl)-6-((5-methoxypyridin-2-yl)sulfonyl)phthalazin-1(2H)-one]
68 | 216 | O=c1c2ccc(S(=O)(=O)c3ccccc3)cc2cnn1Cc1cnc2ccccn12 [Example 261, 2-(imidazo[1,2-a]pyridin-3-ylmethyl)-6-(phenylsulfonyl)phthalazin-1(2H)-one]
110 | 647 | Cn1ccc(Cn2ncc3cc(S(=N)(=O)c4ccccc4)ccc3c2=O)n1 (stereo not shown) [Example 262, 2-((1-methyl-1H-pyrazol-3-yl)methyl)-6-(phenylsulfonimidoyl)phthalazin-1(2H)-one]
98 | 172 | O=c1c2cc(NCCO)c(S(=O)(=O)c3ccccc3)cc2cnn1Cc1cc[nH]n1 [Example 263, 2-((1H-pyrazol-3-yl)methyl)-7-((2-hydroxyethyl)amino)-6-(phenylsulfonyl)phthalazin-1(2H)-one]
92.3 | 191 | Cn1cc(S(=O)(=O)c2cc3cnn(Cc4cc[nH]n4)c(=O)c3cn2)cn1 [Example 266, 3-((1H-pyrazol-3-yl)methyl)-7-((1-methyl-1H-pyrazol-4-yl)sulfonyl)pyrido[3,4-d]pyridazin-4(3H)-one]
83.5 | 481 | Cn1cc(S(=O)(=O)c2cnc3c(=O)n(Cc4cc[nH]n4)ncc3c2)cn1 [Example 267, 7-((1H-pyrazol-3-yl)methyl)-3-((1-methyl-1H-pyrazol-4-yl)sulfonyl)pyrido[2,3-d]pyridazin-8(7H)-one]
112 | 457 | O=c1c2ccc(S(=O)(=O)c3ccccc3)cc2cnn1Cc1ccn(C2COC2)n1 [Example 273, 2-((1-(oxetan-3-yl)-1H-pyrazol-3-yl)methyl)-6-(phenylsulfonyl)phthalazin-1(2H)-one]

Continued, molecule first:

Compound | Emax [%] | EC50 [nM]
Cn1ccc2cc(S(=O)(=O)c3ccc4c(=O)n(Cc5cc[nH]n5)ncc4c3)ccc21 [Example 231, 2-((1H-pyrazol-3-yl)methyl)-6-((1-methyl-1H-indol-5-yl)sulfonyl)phthalazin-1(2H)-one] | 111 | 93.5
O=c1c2ccc(S(=O)(=O)c3cccnc3)cc2cnn1Cc1cc[nH]n1 [Example 233, 2-((1H-pyrazol-3-yl)methyl)-6-(pyridin-3-ylsulfonyl)phthalazin-1(2H)-one] | 126 | 489
Cn1cc(S(=O)(=O)c2ccc3c(=O)n(Cc4ccn(C5CC5)n4)ncc3c2)cn1 [Example 236, 2-((1-cyclopropyl-1H-pyrazol-3-yl)methyl)-6-((1-methyl-1H-pyrazol-4-yl)sulfonyl)phthalazin-1(2H)-one] | 116 | 120
Cn1ccc(Cn2ncc3cc(S(=O)(=O)c4ccccc4)cc(F)c3c2=O)n1 [Example 245, 8-fluoro-2-((1-methyl-1H-pyrazol-3-yl)methyl)-6-(phenylsulfonyl)phthalazin-1(2H)-one] | 103 | 54.2
O=c1c2ccc(S(=O)(=O)c3ccccc3)c(NCCO)c2cnn1Cc1cccnc1O [Example 247, 5-((2-hydroxyethyl)amino)-2-((2-hydroxypyridin-3-yl)methyl)-6-(phenylsulfonyl)phthalazin-1(2H)-one] | 103 | 252
Cn1ccc(Cn2ncc3cc(S(=O)(=O)c4ccccc4)cnc3c2=O)n1 [Example 250, 7-((1-methyl-1H-pyrazol-3-yl)methyl)-3-(phenylsulfonyl)pyrido[2,3-d]pyridazin-8(7H)-one] | 92.4 | 398
COc1ccc(S(=O)(=O)c2ccc3c(=O)n(Cc4c(O)ccnc4O)ncc3c2)cc1 [Example 255, 2-((2,4-dihydroxypyridin-3-yl)methyl)-6-(4-methoxyphenylsulfonyl)phthalazin-1(2H)-one] | 104 | 155
O=c1c2ccc(S(=O)(=O)c3cnccn3)cc2cnn1Cc1cc[nH]n1 [Example 260, 2-((1H-pyrazol-3-yl)methyl)-6-(pyrazin-2-ylsulfonyl)phthalazin-1(2H)-one] | 113 | 469
Cn1ccc(Cn2ncc3cc(S(=O)(=O)c4cnn(CCO)c4)ccc3c2=O)n1 [Example 264, 6-((1-(2-hydroxyethyl)-1H-pyrazol-4-yl)sulfonyl)-2-((1-methyl-1H-pyrazol-3-yl)methyl)phthalazin-1(2H)-one] | 94.6 | 204
Cn1cc(S(=O)(=O)c2cc3cnn(Cc4cc[nH]n4)c(=O)c3cc2NCCO)cn1 [Example 268, 2-((1H-pyrazol-3-yl)methyl)-7-((2-hydroxyethyl)amino)-6-((1-methyl-1H-pyrazol-4-yl)sulfonyl)phthalazin-1(2H)-one] | 102 | 352
Cc1cccc(Cn2ncc3cc(S(=O)(=O)c4cnn(CCO)c4)ccc3c2=O)n1 [Example 269] | 103 | 129
